In patent publication US7265107B2, “Rifamycin C-11 oxime cyclo derivatives effective against drug-resistant microbes” (Cumbre Pharmaceuticals Inc., priority 2004, dated 2007):
Converted amounts (≈) assume the structure as drawn.

Experiments:
Assay type in all cases: cell-based
[1] = test system: Haemophilus influenzae ATCC10211; details: rifS, BHI Broth with NAD and hematin, 37° C., read-out: Antimicrobial activity (MIC)
[2] = test system: Streptococcus pneumoniae ATCC6303; details: rifS, THY Broth with 1 mg/mL catalase, 5% CO2, 37° C., read-out: Antimicrobial activity (MIC)
[3] = test system: Staphylococcus aureus EN1252a gvrA^S84L grlA^S80F; assay: microbe, parasite or virus in culture; details: cipR, Cation-Adjusted Mueller-Hinton Broth, 37° C., read-out: Antimicrobial activity (MIC)
Protocol: Representative compounds were assayed for antimicrobial activity as follows: Minimum Inhibitory Concentrations (“MICs”) were determined by the microbroth dilution method as per NCCLS guidelines (National Committee for Clinical Laboratory Standards. 2000. Methods for dilution antimicrobial susceptibility tests for bacteria that grow aerobically, 5th ed. M7-A5. National Committee for Clinical Laboratory Standards, Wayne, Pa.), except that all growth incubations were conducted at 37° C. Bacterial cultures were tested in the following bacteriological media: S. aureus, S. epidermidis, and E. coli in Cation-Adjusted Mueller-Hinton Broth, S. pneumoniae in THY Broth supplemented with 1 mg/mL catalase under 5% CO2 atmosphere, S. pyogenes in THY Broth, E. faecalis in BHI Broth, H. influenzae in BHI Broth supplemented with 0.75 μL of 1 mg/mL NAD and 150 μL of 1 mg/ml hematin per 5 mL, and M. smegmatis in Middlebrook Broth plus ADC Enrichment.
S. aureus EN1252a gyrA^S84L grlA^S80F is a quinolone-resistant strain due to double mutations to the genes confer DNA gyrase and topoisomerase IV.

[4] = test system: Enterococcus faecalis ATCC29212; details: rifS, BHI Broth, 37° C., read-out: Antimicrobial activity (MIC)

SMILES | MIC [1] [ng/mL] | MIC [2] [ng/mL] | MIC [3] [ng/mL] | MIC [4] [ng/mL]
CO[C@H]1/C=C/O[C@@]2(C)Oc3c(C)c(O)c4c(c3/C2=N/O)C2=NC3(CCN(CC(C)C)CC3)NC2=C(NC(=O)/C(C)=C\C=C\[C@H](C)[C@H](O)[C@@H](C)[C@@H](O)[C@@H](C)[C@H](OC(C)=O)[C@@H]1C)C4=O [Example 4, 11-Deoxy-11-hydroxyimino-1′,4-didehydro-1-deoxy-1,4-dihydro-5′-(2-methylpropyl)-1-oxo-rifamycin XIV] | 125 to 8000 (≈ 145 to 9280 nM) | 0.06 to 31 (≈ 0.0696 to 36 nM) | 0.5 to 125 (≈ 0.58 to 145 nM) | 500 to 31200 (≈ 580 to 36300 nM)
CO[C@H]1/C=C/O[C@@]2(C)Oc3c(C)c(O)c4c(=O)c(c5oc6cc(N7CCN(CC(C)C)CC7)cc(O)c6nc-5c4c3/C2=N/O)NC(=O)/C(C)=C\C=C\[C@H](C)[C@H](O)[C@@H](C)[C@@H](O)[C@@H](C)[C@H](OC(C)=O)[C@@H]1C [Example 5, 11-Deoxy-11-hydroxyimino-1′,4-didehydro-1-deoxy-1,4-dihydro-3′-hydroxy-5′-[4-(2-methylpropyl)-1-piperazinyl]-1-oxo-rifamycin VIII] | 125 to 8000 (≈ 131 to 8370 nM) | 0.06 to 31 (≈ 0.0628 to 32.4 nM) | 0.5 to 125 (≈ 0.523 to 131 nM) | 500 to 31200 (≈ 523 to 32700 nM)
CO[C@H]1/C=C/O[C@@]2(C)Oc3c(C)c(O)c4c(=O)c(c5oc6cc(N7CCOCC7)cc(O)c6nc-5c4c3/C2=N/O)NC(=O)/C(C)=C\C=C\[C@H](C)[C@H](O)[C@@H](C)[C@@H](O)[C@@H](C)[C@H](OC(C)=O)[C@@H]1C [Example 6, 11-Deoxy-11-hydroxyimino-1′,4-didehydro-1-deoxy-1,4-dihydro-3′-hydroxy-5′-(morpholin-4-yl)-1-oxo-rifamycin VIII] | 125 to 8000 (≈ 139 to 8880 nM) | 0.06 to 31 (≈ 0.0666 to 34.4 nM) | 0.5 to 125 (≈ 0.555 to 139 nM) | 500 to 31200 (≈ 555 to 34700 nM)
CO[C@H]1/C=C/O[C@@]2(C)Oc3c(C)c(O)c4c(=O)c(c5oc6cc(N7CCN(C)CC7)cc(O)c6nc-5c4c3/C2=N/O)NC(=O)/C(C)=C\C=C\[C@H](C)[C@H](O)[C@@H](C)[C@@H](O)[C@@H](C)[C@H](OC(C)=O)[C@@H]1C [Example 7, 11-Deoxy-11-hydroxyimino-1′,4-didehydro-1-deoxy-1,4-dihydro-3′-hydroxy-5′-(4-methyl-i-piperazinyl)-1-oxo-rifamycin VIII] | 125 to 8000 (≈ 137 to 8750 nM) | 0.06 to 31 (≈ 0.0656 to 33.9 nM) | 0.5 to 125 (≈ 0.547 to 137 nM) | 500 to 31200 (≈ 547 to 34200 nM)
CCN1CCN(c2cc(O)c3nc4c5c6c7c(C)c(O)c5c(=O)c(c-4oc3c2)NC(=O)/C(C)=C\C=C\[C@H](C)[C@H](O)[C@@H](C)[C@@H](O)[C@@H](C)[C@H](OC(C)=O)[C@H](C)[C@@H](OC)/C=C/O[C@@](C)(O7)/C6=N\O)CC1 [Example 8, 11-Deoxy-11-hydroxyimino-1′,4-didehydro-1-deoxy-1,4-dihydro-3′-hydroxy-5′-(4-ethyl-1-piperazinyl)-1-oxo-rifamycin VIII] | 125 to 8000 (≈ 135 to 8620 nM) | 0.06 to 31 (≈ 0.0647 to 33.4 nM) | 0.5 to 125 (≈ 0.539 to 135 nM) | 500 to 31200 (≈ 539 to 33700 nM)
CO[C@H]1/C=C/O[C@@]2(C)Oc3c(C)c(O)c4c(=O)c(c5oc6cc(N7CCN(C(C)C)CC7)cc(O)c6nc-5c4c3/C2=N/O)NC(=O)/C(C)=C\C=C\[C@H](C)[C@H](O)[C@@H](C)[C@@H](O)[C@@H](C)[C@H](OC(C)=O)[C@@H]1C [Example 9, 11-Deoxy-11-hydroxyimino-1′,4-didehydro-1-deoxy-1,4-dihydro-3′-hydroxy-5′-(4-isopropyl-1-piperazinyl)-1-oxo-rifamycin VIII] | 125 to 8000 (≈ 133 to 8490 nM) | 0.06 to 31 (≈ 0.0637 to 32.9 nM) | 0.5 to 125 (≈ 0.531 to 133 nM) | 500 to 31200 (≈ 531 to 33200 nM)
CCCCN1CCN(c2cc(O)c3nc4c5c6c7c(C)c(O)c5c(=O)c(c-4oc3c2)NC(=O)/C(C)=C\C=C\[C@H](C)[C@H](O)[C@@H](C)[C@@H](O)[C@@H](C)[C@H](OC(C)=O)[C@H](C)[C@@H](OC)/C=C/O[C@@](C)(O7)/C6=N\O)CC1 [Example 10, 11-Deoxy-11-hydroxyimino-1′,4-didehydro-1-deoxy-1,4-dihydro-3′-hydroxy-5′-(4-butyl-1-piperazinyl)-1-oxo-rifamycin VIII] | 125 to 8000 (≈ 131 to 8370 nM) | 0.06 to 31 (≈ 0.0628 to 32.4 nM) | 0.5 to 125 (≈ 0.523 to 131 nM) | 500 to 31200 (≈ 523 to 32700 nM)
CO[C@H]1/C=C/O[C@@]2(C)Oc3c(C)c(O)c4c(=O)c(c5oc6cc(N7CCN(CC8CCCCC8)CC7)cc(O)c6nc-5c4c3/C2=N/O)NC(=O)/C(C)=C\C=C\[C@H](C)[C@H](O)[C@@H](C)[C@@H](O)[C@@H](C)[C@H](OC(C)=O)[C@@H]1C [Example 11, 11-Deoxy-11-hydroxyimino-1′,4-didehydro-1-deoxy-1,4-dihydro-3′-hydroxy-5′-(4-cyclohexylmethyl-1-piperazinyl)-1-oxo-rifamycin VIII] | 125 to 8000 (≈ 125 to 8030 nM) | 0.06 to 31 (≈ 0.0602 to 31.1 nM) | 0.5 to 125 (≈ 0.502 to 125 nM) | 500 to 31200 (≈ 502 to 31400 nM)
CO[C@H]1/C=C/O[C@@]2(C)Oc3c(C)c(O)c4c(=O)c(c5oc6cc(N7CCN(CC8CCN(C)CC8)CC7)cc(O)c6nc-5c4c3/C2=N/O)NC(=O)/C(C)=C\C=C\[C@H](C)[C@H](O)[C@@H](C)[C@@H](O)[C@@H](C)[C@H](OC(C)=O)[C@@H]1C [Example 12, 11-Deoxy-11-hydroxyimino-1′,4-didehydro-1-deoxy-1,4-dihydro-3′-hydroxy-5 V-[4-(1-Methyl-piperidin-4-ylmethyl)-1-piperazinyl]-1-oxo-rifamycin VII] | 125 to 8000 (≈ 124 to 7910 nM) | 0.06 to 31 (≈ 0.0593 to 30.7 nM) | 0.5 to 125 (≈ 0.494 to 124 nM) | 500 to 31200 (≈ 494 to 30900 nM)
CO[C@H]1/C=C/O[C@@]2(C)Oc3c(C)c(O)c4c(=O)c(c5oc6cc(N7CCC(N8CCCCC8)CC7)cc(O)c6nc-5c4c3/C2=N/O)NC(=O)/C(C)=C\C=C\[C@H](C)[C@H](O)[C@@H](C)[C@@H](O)[C@@H](C)[C@H](OC(C)=O)[C@@H]1C [Example 13, 11-Deoxy-11-hydroxyimino-1′,4-didehydro-1-deoxy-1,4-dihydro-3′-hydroxy-5′-[(1,4′)-bipiperidinyl-1′-yl]-1-oxo-rifamycin VIII] | 125 to 8000 (≈ 127 to 8150 nM) | 0.06 to 31 (≈ 0.0611 to 31.6 nM) | 0.5 to 125 (≈ 0.509 to 127 nM) | 500 to 31200 (≈ 509 to 31800 nM)
CO[C@H]1/C=C/O[C@@]2(C)Oc3c(C)c(O)c4c(=O)c(c5oc6cc(N7CC(C)NC(C)C7)cc(O)c6nc-5c4c3/C2=N/O)NC(=O)/C(C)=C\C=C\[C@H](C)[C@H](O)[C@@H](C)[C@@H](O)[C@@H](C)[C@H](OC(C)=O)[C@@H]1C (stereo partly shown) [Example 14, 11-Deoxy-11-hydroxyimino-1′,4-didehydro-1-deoxy-1,4-dihydro-3′-hydroxy-5′-(3,5-dimethyl-1-piperazinyl)-1-oxo-rifamycin VIII] | 125 to 8000 (≈ 135 to 8620 nM) | 0.06 to 31 (≈ 0.0647 to 33.4 nM) | 0.5 to 125 (≈ 0.539 to 135 nM) | 500 to 31200 (≈ 539 to 33700 nM)
CO[C@H]1/C=C/O[C@@]2(C)Oc3c(C)c(O)c4c(=O)c(c5oc6cc(N7CC[C@@H](N)C7)cc(O)c6nc-5c4c3/C2=N/O)NC(=O)/C(C)=C\C=C\[C@H](C)[C@H](O)[C@@H](C)[C@@H](O)[C@@H](C)[C@H](OC(C)=O)[C@@H]1C [Example 15, 11-Deoxy-11-hydroxyimino-1′,4-didehydro-1-deoxy-1,4-dihydro-3′-hydroxy-5′-(3-amino-pyrrolidin-1-yl)-1-oxo-rifamycin VIII] | 125 to 8000 (≈ 139 to 8890 nM) | 0.06 to 31 (≈ 0.0667 to 34.4 nM) | 0.5 to 125 (≈ 0.556 to 139 nM) | 500 to 31200 (≈ 556 to 34700 nM)
CO[C@H]1/C=C/O[C@@]2(C)Oc3c(C)c(O)c4c(=O)c(c5oc6cc(N7CCCC7)cc(O)c6nc-5c4c3/C2=N/O)NC(=O)/C(C)=C\C=C\[C@H](C)[C@H](O)[C@@H](C)[C@@H](O)[C@@H](C)[C@H](OC(C)=O)[C@@H]1C [Example 16, 11-Deoxy-11-hydroxyimino-1′,4-didehydro-1-deoxy-1,4-dihydro-3′-hydroxy-5′-(pyrrolidin-1-yl)-1-oxo-rifamycin VIII] | 125 to 8000 (≈ 141 to 9040 nM) | 0.06 to 31 (≈ 0.0678 to 35 nM) | 0.5 to 125 (≈ 0.565 to 141 nM) | 500 to 31200 (≈ 565 to 35300 nM)
